Data from ChEMBL document CHEMBL4118281, “Azoalkyl ether imidazo[2,1-b]benzothiazoles as potentially antimicrobial agents with novel structural skeleton” (2018).
Values after ≈ are worked out from the molar mass of the structure shown.

What was measured:
Staphylococcus aureus [1] = test: Antibacterial activity against methicillin-resistant Staphylococcus aureus N315 after 24 hrs by micro broth dilution method; format: functional; settings: N315, 24 h
Staphylococcus aureus [2] = test: Antibacterial activity against Staphylococcus aureus ATCC 25923 after 24 hrs by micro broth dilution method; format: functional; settings: ATCC 25923, 24 h
Bacillus subtilis = test: Antibacterial activity against Bacillus subtilis after 24 hrs by micro broth dilution method; format: functional
Micrococcus luteus = test: Antibacterial activity against Micrococcus luteus ATCC 4698 after 24 hrs by micro broth dilution method; format: functional; settings: NCTC 2665, 24 h
Escherichia coli [3] = test: Antibacterial activity against Escherichia coli DH52 after 24 hrs by micro broth dilution method; format: functional; settings: DH52, 24 h
Escherichia coli [4] = test: Antibacterial activity against Escherichia coli JM109 after 24 hrs by micro broth dilution method; format: functional; settings: JM109, 24 h
Shigella dysenteriae = test: Antibacterial activity against Shigella dysenteriae after 24 hrs by micro broth dilution method; format: functional
Pseudomonas aeruginosa = test: Antibacterial activity against Pseudomonas aeruginosa after 24 hrs by micro broth dilution method; format: functional
Bacillus = test: Antibacterial activity against Bacillus proteus ATCC 13315 after 24 hrs by micro broth dilution method; format: functional; settings: ATCC 13315, 24 h
Salmonella typhi = test: Antibacterial activity against Bacillus typhi after 24 hrs by micro broth dilution method; format: functional, Salmonella enterica subsp. enterica serovar Typhi; settings: Salmonella enterica
Candida albicans = test: Antifungal activity against Candida albicans after 24 hrs by two fold serial dilution based spectrophotometric analysis; format: functional
Pichia norvegensis = test: Antifungal activity against Candida mycoderma after 24 hrs by two fold serial dilution based spectrophotometric analysis; format: functional
Cyberlindnera jadinii = test: Antifungal activity against Candida utilis after 24 hrs by two fold serial dilution based spectrophotometric analysis; format: functional; settings: Williopsis jadinii
Aspergillus flavus = test: Antifungal activity against Aspergillus flavus after 24 hrs by two fold serial dilution based spectrophotometric analysis; format: functional
Saccharomyces cerevisiae = test: Antifungal activity against Beer yeast after 24 hrs by two fold serial dilution based spectrophotometric analysis; format: functional

CCOc1ccc2c(c1)sc1nc(-c3ccccc3)c(COCCCn3cnc([N+](=O)[O-])c3)n12
MIC (Staphylococcus aureus [1]): 512 µg/mL (≈ 1070 µM)
MIC (Staphylococcus aureus [2]): 128 µg/mL (≈ 268 µM)
MIC (Bacillus subtilis): 256 µg/mL (≈ 536 µM)
MIC (Micrococcus luteus): 256 µg/mL (≈ 536 µM)
MIC (Escherichia coli [3]): 512 µg/mL (≈ 1070 µM)
MIC (Escherichia coli [4]): 256 µg/mL (≈ 536 µM)
MIC (Shigella dysenteriae): 256 µg/mL (≈ 536 µM)
MIC (Pseudomonas aeruginosa): 512 µg/mL (≈ 1070 µM)
MIC (Bacillus): 512 µg/mL (≈ 1070 µM)
MIC (Salmonella typhi): 256 µg/mL (≈ 536 µM)
MIC (Candida albicans): 16 µg/mL (≈ 33.5 µM)
MIC (Pichia norvegensis): 32 µg/mL (≈ 67 µM)
MIC (Cyberlindnera jadinii): 128 µg/mL (≈ 268 µM)
MIC (Aspergillus flavus): 32 µg/mL (≈ 67 µM)
MIC (Saccharomyces cerevisiae): > 512 µg/mL

CCOc1ccc2c(c1)sc1nc(-c3ccccc3)c(COCCCn3cncn3)n12
MIC (Staphylococcus aureus [1]): > 512 µg/mL
MIC (Staphylococcus aureus [2]): > 512 µg/mL
MIC (Bacillus subtilis): > 512 µg/mL
MIC (Micrococcus luteus): > 512 µg/mL
MIC (Escherichia coli [3]): > 512 µg/mL
MIC (Escherichia coli [4]): 256 µg/mL (≈ 590 µM)
MIC (Shigella dysenteriae): > 512 µg/mL
MIC (Pseudomonas aeruginosa): > 512 µg/mL
MIC (Bacillus): > 512 µg/mL
MIC (Salmonella typhi): > 512 µg/mL
MIC (Candida albicans): 16 µg/mL (≈ 36.9 µM)
MIC (Pichia norvegensis): 64 µg/mL (≈ 148 µM)
MIC (Cyberlindnera jadinii): 64 µg/mL (≈ 148 µM)
MIC (Aspergillus flavus): 64 µg/mL (≈ 148 µM)
MIC (Saccharomyces cerevisiae): 128 µg/mL (≈ 295 µM)

CCOc1ccc2c(c1)sc1nc(-c3ccccc3)c(COCCCCCn3cncn3)n12
MIC (Staphylococcus aureus [1]): > 512 µg/mL
MIC (Staphylococcus aureus [2]): > 512 µg/mL
MIC (Bacillus subtilis): > 512 µg/mL
MIC (Micrococcus luteus): > 512 µg/mL
MIC (Escherichia coli [3]): > 512 µg/mL
MIC (Escherichia coli [4]): 128 µg/mL (≈ 277 µM)
MIC (Shigella dysenteriae): 256 µg/mL (≈ 555 µM)
MIC (Pseudomonas aeruginosa): > 512 µg/mL
MIC (Bacillus): > 512 µg/mL
MIC (Salmonella typhi): > 512 µg/mL
MIC (Candida albicans): > 512 µg/mL
MIC (Pichia norvegensis): 256 µg/mL (≈ 555 µM)
MIC (Cyberlindnera jadinii): 256 µg/mL (≈ 555 µM)
MIC (Aspergillus flavus): > 512 µg/mL
MIC (Saccharomyces cerevisiae): > 512 µg/mL

c1ccc(-c2nc3sc4ccccc4n3c2COCCCCCn2cncn2)cc1
MIC (Staphylococcus aureus [1]): 16 µg/mL (≈ 38.3 µM)
MIC (Staphylococcus aureus [2]): 16 µg/mL (≈ 38.3 µM)
MIC (Bacillus subtilis): 32 µg/mL (≈ 76.6 µM)
MIC (Micrococcus luteus): 256 µg/mL (≈ 613 µM)
MIC (Escherichia coli [3]): 32 µg/mL (≈ 76.6 µM)
MIC (Escherichia coli [4]): 16 µg/mL (≈ 38.3 µM)
MIC (Shigella dysenteriae): 8 µg/mL (≈ 19.2 µM)
MIC (Pseudomonas aeruginosa): 32 µg/mL (≈ 76.6 µM)
MIC (Bacillus): 32 µg/mL (≈ 76.6 µM)
MIC (Salmonella typhi): 32 µg/mL (≈ 76.6 µM)
MIC (Candida albicans): 4 µg/mL (≈ 9.58 µM)
MIC (Pichia norvegensis): 8 µg/mL (≈ 19.2 µM)
MIC (Cyberlindnera jadinii): 64 µg/mL (≈ 153 µM)
MIC (Aspergillus flavus): 16 µg/mL (≈ 38.3 µM)
MIC (Saccharomyces cerevisiae): 8 µg/mL (≈ 19.2 µM)

CCOc1ccc2c(c1)sc1nc(-c3ccccc3)c(COCCCCCBr)n12
MIC (Staphylococcus aureus [1]): > 512 µg/mL
MIC (Staphylococcus aureus [2]): > 512 µg/mL
MIC (Bacillus subtilis): 128 µg/mL (≈ 270 µM)
MIC (Micrococcus luteus): > 512 µg/mL
MIC (Escherichia coli [3]): 128 µg/mL (≈ 270 µM)
MIC (Escherichia coli [4]): > 512 µg/mL
MIC (Shigella dysenteriae): 128 µg/mL (≈ 270 µM)
MIC (Pseudomonas aeruginosa): > 512 µg/mL
MIC (Bacillus): 128 µg/mL (≈ 270 µM)
MIC (Salmonella typhi): > 512 µg/mL
MIC (Candida albicans): 16 µg/mL (≈ 33.8 µM)
MIC (Pichia norvegensis): 128 µg/mL (≈ 270 µM)
MIC (Cyberlindnera jadinii): > 512 µg/mL
MIC (Aspergillus flavus): 64 µg/mL (≈ 135 µM)
MIC (Saccharomyces cerevisiae): > 512 µg/mL

CCOc1ccc2c(c1)sc1nc(-c3ccccc3)c(COCCCn3c([N+](=O)[O-])cnc3C)n12
MIC (Staphylococcus aureus [1]): 16 µg/mL (≈ 32.5 µM)
MIC (Staphylococcus aureus [2]): 32 µg/mL (≈ 65.1 µM)
MIC (Bacillus subtilis): 16 µg/mL (≈ 32.5 µM)
MIC (Micrococcus luteus): 128 µg/mL (≈ 260 µM)
MIC (Escherichia coli [3]): 16 µg/mL (≈ 32.5 µM)
MIC (Escherichia coli [4]): 32 µg/mL (≈ 65.1 µM)
MIC (Shigella dysenteriae): 8 µg/mL (≈ 16.3 µM)
MIC (Pseudomonas aeruginosa): 32 µg/mL (≈ 65.1 µM)
MIC (Bacillus): 32 µg/mL (≈ 65.1 µM)
MIC (Salmonella typhi): 8 µg/mL (≈ 16.3 µM)
MIC (Candida albicans): 32 µg/mL (≈ 65.1 µM)
MIC (Pichia norvegensis): 64 µg/mL (≈ 130 µM)
MIC (Cyberlindnera jadinii): 256 µg/mL (≈ 521 µM)
MIC (Aspergillus flavus): 64 µg/mL (≈ 130 µM)
MIC (Saccharomyces cerevisiae): 8 µg/mL (≈ 16.3 µM)

c1ccc(-c2nc3sc4ccccc4n3c2COCCCCCCCCCCn2cncn2)cc1
MIC (Staphylococcus aureus [1]): 16 µg/mL (≈ 32.8 µM)
MIC (Staphylococcus aureus [2]): 32 µg/mL (≈ 65.6 µM)
MIC (Bacillus subtilis): 16 µg/mL (≈ 32.8 µM)
MIC (Micrococcus luteus): 64 µg/mL (≈ 131 µM)
MIC (Escherichia coli [3]): 32 µg/mL (≈ 65.6 µM)
MIC (Escherichia coli [4]): 64 µg/mL (≈ 131 µM)
MIC (Shigella dysenteriae): 16 µg/mL (≈ 32.8 µM)
MIC (Pseudomonas aeruginosa): 32 µg/mL (≈ 65.6 µM)
MIC (Bacillus): 128 µg/mL (≈ 262 µM)
MIC (Salmonella typhi): 16 µg/mL (≈ 32.8 µM)
MIC (Candida albicans): 16 µg/mL (≈ 32.8 µM)
MIC (Pichia norvegensis): 16 µg/mL (≈ 32.8 µM)
MIC (Cyberlindnera jadinii): > 512 µg/mL
MIC (Aspergillus flavus): 16 µg/mL (≈ 32.8 µM)
MIC (Saccharomyces cerevisiae): 16 µg/mL (≈ 32.8 µM)

CCOc1ccc2c(c1)sc1nc(-c3ccccc3)c(COCCCCCn3c([N+](=O)[O-])cnc3C)n12
MIC (Staphylococcus aureus [2]): 128 µg/mL (≈ 246 µM)
MIC (Bacillus subtilis): 512 µg/mL (≈ 985 µM)
MIC (Micrococcus luteus): 256 µg/mL (≈ 493 µM)
MIC (Escherichia coli [3]): 512 µg/mL (≈ 985 µM)
MIC (Escherichia coli [4]): > 512 µg/mL
MIC (Pseudomonas aeruginosa): 512 µg/mL (≈ 985 µM)
MIC (Bacillus): > 512 µg/mL
MIC (Candida albicans): 32 µg/mL (≈ 61.6 µM)
MIC (Pichia norvegensis): 128 µg/mL (≈ 246 µM)
MIC (Cyberlindnera jadinii): 256 µg/mL (≈ 493 µM)
MIC (Aspergillus flavus): 128 µg/mL (≈ 246 µM)
MIC (Saccharomyces cerevisiae): 128 µg/mL (≈ 246 µM)

CCn1cc(C(=O)O)c(=O)c2cc(F)c(N3CCNCC3)cc21 [NORFLOXACIN]
MIC (Staphylococcus aureus [1]): 8 µg/mL (≈ 25.1 µM)
MIC (Staphylococcus aureus [2]): 2 µg/mL (≈ 6.26 µM)
MIC (Bacillus subtilis): 4 µg/mL (≈ 12.5 µM)
MIC (Micrococcus luteus): 2 µg/mL (≈ 6.26 µM)
MIC (Escherichia coli [3]): 1 µg/mL (≈ 3.13 µM)
MIC (Escherichia coli [4]): 1 µg/mL (≈ 3.13 µM)
MIC (Shigella dysenteriae): 16 µg/mL (≈ 50.1 µM)
MIC (Pseudomonas aeruginosa): 16 µg/mL (≈ 50.1 µM)
MIC (Bacillus): 8 µg/mL (≈ 25.1 µM)
MIC (Salmonella typhi): 4 µg/mL (≈ 12.5 µM)

OC(Cn1cncn1)(Cn1cncn1)c1ccc(F)cc1F [FLUCONAZOLE]
MIC (Candida albicans): 1 µg/mL (≈ 3.27 µM)
MIC (Pichia norvegensis): 4 µg/mL (≈ 13.1 µM)
MIC (Cyberlindnera jadinii): 8 µg/mL (≈ 26.1 µM)
MIC (Aspergillus flavus): 256 µg/mL (≈ 836 µM)
MIC (Saccharomyces cerevisiae): 16 µg/mL (≈ 52.2 µM)
